According to ChEMBL document CHEMBL1158449, “Hirtellanines A and B, a pair of isomeric isoflavonoid derivatives from Campylotropis hirtella and their immunosuppressive activities” (Bioorg Med Chem Lett, 2009):

Assays:
Splenocyte [1] = test: Immunosuppressive activity in splenocytes assessed as inhibition of LPS-induced proliferation after 48 hrs by [3H]thymidine incorporation assay; format: functional, cell-based; conditions: Mus musculus
[2] = Cytotoxicity against splenocytes after 48 hrs by MTT assay; format: cell-based, Splenocyte
Splenocyte [3] = test: Selectivity index, CC50 for splenocytes to IC50 for concanavalin A-induced splenocyte proliferation; format: functional
Splenocyte [4] = test: Selectivity index, CC50 for splenocyte to IC50 for LPS-induced splenocytes proliferation; format: functional
Splenocyte [5] = test: Immunosuppressive activity in splenocytes assessed as inhibition of concanavalin A-induced proliferation after 48 hrs by [3H]thymidine incorporation assay; format: functional, cell-based; conditions: Mus musculus

Row | SMILES | IC50 (Splenocyte [1]) [µM] | CC50 at 48 h [2] [µM] | Ratio CC50/IC50 (Splenocyte [3]) | Ratio CC50/IC50 (Splenocyte [4]) | IC50 (Splenocyte [5]) [µM]
1 | COc1c2c(cc3oc(=O)c4c5cc(O)c(O)cc5oc4c13)OC(C)(C)C=C2 [HIRTELLANINE B] | 3 | 26.3 | 2.76 | 8.77 | 9.55
2 | C/C=C/C[C@@H](C)[C@@H](O)[C@H]1C(=O)N[C@@H](CC)C(=O)N(C)CC(=O)N(C)[C@@H](CC(C)C)C(=O)N[C@@H](C(C)C)C(=O)N(C)[C@@H](CC(C)C)C(=O)N[C@@H](C)C(=O)N[C@H](C)C(=O)N(C)[C@@H](CC(C)C)C(=O)N(C)[C@@H](CC(C)C)C(=O)N(C)[C@@H](C(C)C)C(=O)N1C [CYCLOSPORINE] |  |  | 88 | 12.39 | 
3 | COc1c2c(cc3oc4oc5cc(O)c(O)cc5c4c(=O)c13)OC(C)(C)C=C2 [HIRTELLANINE A] | 0.06 | 3.03 | 3.29 | 50.5 | 0.92
